Source: publication PMC8854719, “Phase 1A/1B dose-escalation and -expansion study to evaluate the safety, pharmacokinetics, food effects and antitumor activity of pamiparib in advanced solid tumours” (British Journal of Cancer, 2021)

Assay: Safety and tolerability: adverse events, dose-limiting toxicities, MTD, RP2D (Phase 1A/1B)
Format: in vivo
Protocol: This was an open-label, Phase 1, dose-escalation/dose-expansion study, conducted across six study centres in Australia. The dose-escalation phase evaluated twice-daily (BID) and once-daily (QD) dosing, and the dose-expansion phase evaluated the BID RP2D from the dose-escalation phase and food effects (Fig. 1). The food-effects cohort comprised two sequences: fast followed by fed (sequence 1) and fed followed by fast (sequence 2). […] The decision to proceed to the next dose cohort was determined by the Safety Monitoring Committee and followed a modified 3 + 3 escalation scheme. […] When ≥2 DLTs occurred in the first 23 days of a dose level, the next lower dose level was declared the MTD. Safety was monitored and DLTs were assessed in all dose cohorts. […] The food-effects cohort investigated the effects of food on the PK of pamiparib in patients with advanced solid tumours.
The QD dosing regimen was added as an amendment to the protocol with the purpose of exploring the feasibility of a more convenient regimen.
Safety and tolerability were assessed throughout the study by monitoring adverse events (AEs), serious AEs, clinical laboratory measurements and physical examinations. Adverse events were categorised according to their severity (National Cancer Institute Common Terminology Criteria for Adverse Events v4.03) and relationship to the study treatment.

SMILES: C[C@]12CCCN1CC1=NNC(=O)c3cc(F)cc4[nH]c2c1c34 [pamiparib]
- Pleural effusion, AE of any grade (5.0 mg BID (n = 3)): 1 (33.3) n (%)
- Pyrexia, AE of any grade (5.0 mg BID (n = 3)): 0 (0.0) n (%)
- Treatment-emergent AE (5.0 mg BID (n = 3)): 3 (100.0) n (%)
- Treatment-emergent AE: Grade 3 or higher (5.0 mg BID (n = 3)): 1 (33.3) n (%)
- Treatment-emergent AE: Leading to death (5.0 mg BID (n = 3)): 0 (0.0) n (%)
- Treatment-emergent AE: Leading to dose interruption (5.0 mg BID (n = 3)): 1 (33.3) n (%)
- Treatment-emergent AE: Leading to dose modification (5.0 mg BID (n = 3)): 1 (33.3) n (%)
- Treatment-emergent AE: Leading to dose reduction (5.0 mg BID (n = 3)): 0 (0.0) n (%)
- Treatment-emergent AE: Leading to treatment discontinuation (5.0 mg BID (n = 3)): 0 (0.0) n (%)
- Treatment-emergent AE: Serious (5.0 mg BID (n = 3)): 2 (66.7) n (%)
- Treatment-related AE (5.0 mg BID (n = 3)): 2 (66.7) n (%)
- Treatment-related AE: Grade 3 or higher (5.0 mg BID (n = 3)): 0 (0.0) n (%)
- Treatment-related AE: Leading to death (5.0 mg BID (n = 3)): 0 (0.0) n (%)
- Treatment-related AE: Leading to dose interruption (5.0 mg BID (n = 3)): 0 (0.0) n (%)
- Treatment-related AE: Leading to dose modification (5.0 mg BID (n = 3)): 0 (0.0) n (%)
- Treatment-related AE: Leading to dose reduction (5.0 mg BID (n = 3)): 0 (0.0) n (%)
- Treatment-related AE: Leading to treatment discontinuation (5.0 mg BID (n = 3)): 0 (0.0) n (%)
- Treatment-related AE: Serious (5.0 mg BID (n = 3)): 0 (0.0) n (%)
- Upper respiratory tract infection, AE of any grade (5.0 mg BID (n = 3)): 0 (0.0) n (%)
- Urinary tract infection, AE of any grade (5.0 mg BID (n = 3)): 0 (0.0) n (%)
- Vomiting, AE of any grade (5.0 mg BID (n = 3)): 0 (0.0) n (%)
- Abdominal pain, AE of any grade (10 mg BID (n = 3)): 1 (33.3) n (%)
- Anaemia, AE of any grade (10 mg BID (n = 3)): 1 (33.3) n (%)
- Ascites, AE of any grade (10 mg BID (n = 3)): 2 (66.7) n (%)
- Back pain, AE of any grade (10 mg BID (n = 3)): 0 (0.0) n (%)
- Constipation, AE of any grade (10 mg BID (n = 3)): 1 (33.3) n (%)
- Cough, AE of any grade (10 mg BID (n = 3)): 1 (33.3) n (%)
- Decreased appetite, AE of any grade (10 mg BID (n = 3)): 0 (0.0) n (%)
- Diarrhoea, AE of any grade (10 mg BID (n = 3)): 1 (33.3) n (%)
- Dose-limiting toxicity (10 mg BID (n = 3)): 0 (0.0) n (%)
- Dyspnoea, AE of any grade (10 mg BID (n = 3)): 1 (33.3) n (%)
- Fatigue, AE of any grade (10 mg BID (n = 3)): 0 (0.0) n (%)
- Headache, AE of any grade (10 mg BID (n = 3)): 0 (0.0) n (%)
- Hypoalbuminemia, AE of any grade (10 mg BID (n = 3)): 0 (0.0) n (%)
- Hypomagnesemia, AE of any grade (10 mg BID (n = 3)): 1 (33.3) n (%)
- Hypophosphatemia, AE of any grade (10 mg BID (n = 3)): 0 (0.0) n (%)
- Increased AST, AE of any grade (10 mg BID (n = 3)): 0 (0.0) n (%)
- Muscle spasms, AE of any grade (10 mg BID (n = 3)): 0 (0.0) n (%)
- Nausea, AE of any grade (10 mg BID (n = 3)): 1 (33.3) n (%)
- Neutropenia, AE of any grade (10 mg BID (n = 3)): 0 (0.0) n (%)
- Non-cardiac chest pain, AE of any grade (10 mg BID (n = 3)): 0 (0.0) n (%)
- Pain in extremity, AE of any grade (10 mg BID (n = 3)): 0 (0.0) n (%)
- Peripheral sensory neuropathy, AE of any grade (10 mg BID (n = 3)): 0 (0.0) n (%)
- Pleural effusion, AE of any grade (10 mg BID (n = 3)): 0 (0.0) n (%)
- Pyrexia, AE of any grade (10 mg BID (n = 3)): 1 (33.3) n (%)
- Treatment-emergent AE (10 mg BID (n = 3)): 3 (100.0) n (%)
- Treatment-emergent AE: Grade 3 or higher (10 mg BID (n = 3)): 2 (66.7) n (%)
- Treatment-emergent AE: Leading to death (10 mg BID (n = 3)): 0 (0.0) n (%)
- Treatment-emergent AE: Leading to dose interruption (10 mg BID (n = 3)): 1 (33.3) n (%)
- Treatment-emergent AE: Leading to dose modification (10 mg BID (n = 3)): 1 (33.3) n (%)
- Treatment-emergent AE: Leading to dose reduction (10 mg BID (n = 3)): 0 (0.0) n (%)
- Treatment-emergent AE: Leading to treatment discontinuation (10 mg BID (n = 3)): 0 (0.0) n (%)
- Treatment-emergent AE: Serious (10 mg BID (n = 3)): 2 (66.7) n (%)
- Treatment-related AE (10 mg BID (n = 3)): 0 (0.0) n (%)
- Treatment-related AE: Grade 3 or higher (10 mg BID (n = 3)): 0 (0.0) n (%)
- Treatment-related AE: Leading to death (10 mg BID (n = 3)): 0 (0.0) n (%)
- Treatment-related AE: Leading to dose interruption (10 mg BID (n = 3)): 0 (0.0) n (%)
- Treatment-related AE: Leading to dose modification (10 mg BID (n = 3)): 0 (0.0) n (%)
- Treatment-related AE: Leading to dose reduction (10 mg BID (n = 3)): 0 (0.0) n (%)
- Treatment-related AE: Leading to treatment discontinuation (10 mg BID (n = 3)): 0 (0.0) n (%)
- Treatment-related AE: Serious (10 mg BID (n = 3)): 0 (0.0) n (%)
- Upper respiratory tract infection, AE of any grade (10 mg BID (n = 3)): 0 (0.0) n (%)
- Urinary tract infection, AE of any grade (10 mg BID (n = 3)): 0 (0.0) n (%)
- Vomiting, AE of any grade (10 mg BID (n = 3)): 1 (33.3) n (%)
- Abdominal pain, AE of any grade (20 mg BID (n = 3)): 2 (66.7) n (%)
- Anaemia, AE of any grade (20 mg BID (n = 3)): 0 (0.0) n (%)
